Laboratory results: article PMC10961359, “Targeting hexokinase 2 for oral cancer therapy: structure-based design and validation of lead compounds” (Frontiers in Pharmacology, 2024)

Experiments:
Cal27 cells = test: Annexin V FITC / propidium iodide apoptosis assay, Cal27; format: cell-based; conditions: Cal27, 10 and 30 μM, 72 h
Experimental: FaDu and Cal27 cells were treated with the test compounds (0.5 million cells per treatment) for 72 h, and harvested for cell cycle analysis (Cat# BD340242) and apoptosis analysis (Cat# BD556547) by flow cytometry according to manufacturer’s instructions.
To determine the effect of HK2 inhibition in the progression of the cell cycle, flow cytometric analysis of compound-treated FaDu and Cal27 cells was carried out 72 h post-treatment. Cell cycle analysis is carried out to quantify the DNA content and estimate the percentages of the cell population in different cell cycle phases via propidium iodide staining. […] To determine the apoptosis-inducing activity of HK2 inhibitors, 10 and 30 μM of compounds H2 and H10 treated FaDu and Cal27 cells were stained with annexin V conjugated with FITC, followed by propidium iodide staining.

[1] = Cytotoxicity in normal HFF1 cells; format: cell-based, human; conditions: human, HFF1 cells (normal)
HFF1 = test: Cytotoxicity in normal HFF1 cells; format: cell-based, human
[2] = system: EGFR tyrosine kinase receptor phosphorylation; parameters: method as in Chakraborty et al., 2022; conditions: 10 µM, 72 h of treatment; ref Chakraborty et al., 2022; cited from earlier work
FaDu oral cancer cells = test: MTT antiproliferative assay, FaDu; format: cell-based; conditions: Homo sapiens, FaDu; MTT, 72 h treatment; mean ± SEM; read-out: GI50 for FaDu
Experimental: FaDu cell line was cultured in RPMI-1640 medium containing L-glutamine (300 mg/L) and sodium bicarbonate (2 g/L), while Cal27, HEK293 and HFF-1 cell lines were cultured in DMEM medium containing glucose (4.5 g/L), L-glutamine (584 mg/L) and sodium bicarbonate (3.7 g/L). For gene expression and qPCR studies, RNA isolation was performed using Trizol (Thermo). The reagents and the primer sequences employed for the qPCR assays have been described previously ([Chakraborty et al., 2022]).
The hits derived from the docking study were sourced from either commercial suppliers or pre-existing compounds within our laboratory or were synthesized anew. The FaDu and Cal27 oral cancer cells were treated with the compounds for 72 h at concentrations of 3, 10, 30, and 100 μM. A post-treatment MTT assay was done to evaluate their antiproliferative activity. Table S2 represents the anti-proliferative and enzyme inhibitory activity of the compounds obtained as hits from the structure-based drug design strategy. […] Consequently, 50 μM of all the hit compounds were evaluated for their HK2 enzyme inhibitory activity. 50 μM of compounds were incubated with HK2 protein and the rate of reaction was assessed in kinetic mode (rate of conversion of NAD to NADH). The choice of 50 μM concentration was based primarily on MTT assays and GI50 calculation. The average GI50 values of the hit compounds against less sensitive FaDu cell line was approximately 50 μM. Considering this information, we reasoned that utilizing a concentration equivalent to the average GI50 would allow us to assess the maximum inhibitory effect of the compounds on HK2 enzyme activity. […] The same compounds have been previously reported by our team to have EGFR phosphorylation inhibitory potential and were coded as H2 (compound 14) and H10 (compound 11) ([Chakraborty et al., 2022]). […] Figures 1C,D show the lead compounds H2 and H10 at the active site of HK2 enzyme interacting via H-bonds with the amino acid residues.

Cal27 spheroids = test: 3D spheroid culture of Cal27 cells; format: cell-based
Experimental: Cal27 cells were seeded at a density of 10,000 cells per well in a 96-well plate coated with 1.5% agarose in incomplete medium. For the prophylactic treatment, medium containing the compounds was added to each well after 6 h of seeding. For treatment, compounds were added after 48 h of seeding. After incubation with the compounds, spheroids were imaged using phase-contrast microscopy to assess the morphology and size. Subsequently, the spheroids were pooled and dissociated into single cell suspension with trypsin for 10 min, washed with PBS and stained with propidium iodide (Cat# BD556547) to analyze the number of apoptotic cells using flow cytometry. For the analysis of spheroid images, each image was processed using ImageJ software where the threshold of each 8-bit image was adjusted to differentiate the darker spheroid area (the inner core) from the lighter spheroid area (the peripheral layers). Subsequently, the darker and lighter areas were measured in pixel square units using the ‘analyze particles’ option in ImageJ.
Cells plated in monolayer cultures might behave differently as compared to 3D cultures. The 3D cultures can better mimic the tumor development and serve as a better tool for drug screening ([Zanoni et al., 2016]). Therefore, spheroid cultures of Cal27 cells were prepared and treated with lead H2. […]

Q: For COc1ccc(CNC(=O)c2nc3ccccc3s2)cc1O [Compound 14, N-(3-hydroxy-4methoxybenzyl)benzo[d]thiazole-2-carboxamide], which apoptosis-inducing activity (Cal27 cells) is on record?
A: late apoptotic and necrotic effects

Q: What about the CC50 [1] of the same compound?
A: > 100 µM

Q: And the “Selectivity index (Cal27)” value (HFF1; CC50/GI50, HFF1 vs Cal27)?
A: >4.6

Q: What about the “Selectivity index (FaDu)” value (HFF1; CC50/GI50, HFF1 vs FaDu) of the same compound?
A: >1.6

Q: What about the “phosphorylation of the EGFR tyrosine kinase receptor” value [2] of the same compound?
A: inhibits the phosphorylation

Q: And the GI50 (FaDu oral cancer cells)?
A: 63.1 µM

Q: What about the spheroid growth (Cal27 spheroids; prophylactic and therapeutic treatment) of the same compound?
A: reduction of spheroid growth

Q: And the “population of dead cells in spheroids” value (Cal27 spheroids; propidium iodide staining at the end of the study)?
A: increase in the population of dead cells
